Assay in all cases: relative viability (nuclei count vs DMSO), 5 days (fraction); higher = more cells survive
Compound in the experiment “AZD1208 + Crizotinib”: N[C@@H]1CCCN(c2c(/C=C3\SC(=O)NC3=O)cccc2-c2ccccc2)C1 [AZD1208] + C[C@@H](Oc1cc(-c2cnn(C3CCNCC3)c2)cnc1N)c1c(Cl)ccc(F)c1Cl [Crizotinib] (partner 1 µM)
In short, it runs like this: (§1)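 Lung cancer cell lines in 1536-well plates got either a single drug or a fixed anchor-drug dose together with five library-drug doses (not always all listed) in √10 steps, by pin tool, on the day after seeding. Nuclei were counted after 5 days, and relative viability is the treated-to-vehicle ratio of nuclei counts. Values are medians of duplicate plates.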

Compound in the experiment “AZD1208 + Decitabine”: N[C@@H]1CCCN(c2c(/C=C3\SC(=O)NC3=O)cccc2-c2ccccc2)C1 [AZD1208] + Nc1ncn([C@H]2C[C@H](O)[C@@H](CO)O2)c(=O)n1 [Decitabine] (partner 2 µM)
In short, it runs like this:
as §1

Compound in the experiment “AZD1208 + Olaparib”: N[C@@H]1CCCN(c2c(/C=C3\SC(=O)NC3=O)cccc2-c2ccccc2)C1 [AZD1208] + O=C(c1cc(Cc2n[nH]c(=O)c3ccccc23)ccc1F)N1CCN(C(=O)C2CC2)CC1 [Olaparib] (partner 8 µM)
In short, it runs like this:
as §1

Compound in the experiment “XMD14-99 + Lapatinib”: CN1CCN(CC1)C2=CC(=C(C=C2)NC3=NC(=C(S3)C(=O)C4=C(C=CC=C4Cl)Cl)N)OC [XMD14-99] + CS(=O)(=O)CCNCc1ccc(-c2ccc3ncnc(Nc4ccc(OCc5cccc(F)c5)c(Cl)c4)c3c2)o1 [Lapatinib] (partner 2 µM)
In short, it runs like this: as §1

Data on 5 cell lines can be found in the supplement of paper PMC10307832.

Regarding ChaGo-K-1, the relative viability is 1.1 in the experiment with AZD1208 + Crizotinib (first compound 0.08 µM); 1.28 with AZD1208 + Crizotinib (first compound 0.253 µM); 0.99 in the experiment with AZD1208 + Crizotinib (first compound 0.8 µM); 1.16 with AZD1208 + Crizotinib (first compound 2.53 µM); 0.9 in the experiment with AZD1208 + Crizotinib (first compound 8 µM); 0.522 with AZD1208 + Decitabine (first compound 0.08 µM). The relative viability with AZD1208 + Decitabine (first compound 0.253 µM) was found to be 0.509; with AZD1208 + Decitabine (first compound 0.8 µM), 0.399; with AZD1208 + Decitabine (first compound 2.53 µM), 0.481; with AZD1208 + Decitabine (first compound 8 µM) it was 0.465; with AZD1208 + Olaparib (first compound 0.08 µM) it was 0.426; with AZD1208 + Olaparib (first compound 0.253 µM), 0.431. The relative viability in the experiment with AZD1208 + Olaparib (first compound 0.8 µM) was found to be 0.378; with AZD1208 + Olaparib (first compound 2.53 µM) it was 0.437; in the experiment with AZD1208 + Olaparib (first compound 8 µM), 0.434.
On to EBC-1, for which the relative viability stood at 0.252 with XMD14-99 + Lapatinib (first compound 0.08 µM); 0.207 in the experiment with XMD14-99 + Lapatinib (first compound 0.8 µM); 0.2 in the experiment with XMD14-99 + Lapatinib (first compound 2.53 µM); 0.173 with XMD14-99 + Lapatinib (first compound 8 µM); 0.19 with AZD1208 + Crizotinib (first compound 0.08 µM); 0.171 with AZD1208 + Crizotinib (first compound 0.253 µM). Moreover, the relative viability in the experiment with AZD1208 + Crizotinib (first compound 0.8 µM) stood at 0.174; in the experiment with AZD1208 + Crizotinib (first compound 2.53 µM), 0.165; with AZD1208 + Crizotinib (first compound 8 µM) it was 0.183; with AZD1208 + Olaparib (first compound 0.08 µM), 0.709; in the experiment with AZD1208 + Olaparib (first compound 0.253 µM), 0.707; with AZD1208 + Olaparib (first compound 0.8 µM), 0.63. The relative viability with AZD1208 + Olaparib (first compound 2.53 µM) was determined as 0.687; with AZD1208 + Olaparib (first compound 8 µM) it was 0.624.
As to EKVX, the relative viability with XMD14-99 + Lapatinib (first compound 0.08 µM) turned out to be 0.187; in the experiment with XMD14-99 + Lapatinib (first compound 0.8 µM), 0.18; in the experiment with XMD14-99 + Lapatinib (first compound 2.53 µM), 0.193; with XMD14-99 + Lapatinib (first compound 8 µM) it was 0.163; with AZD1208 + Crizotinib (first compound 0.08 µM), 0.887; with AZD1208 + Crizotinib (first compound 0.253 µM) it was 1.29. Also, the relative viability was found to be 0.86 with AZD1208 + Crizotinib (first compound 0.8 µM); 1.01 with AZD1208 + Crizotinib (first compound 2.53 µM); 0.88 in the experiment with AZD1208 + Crizotinib (first compound 8 µM); 0.286 with AZD1208 + Decitabine (first compound 0.08 µM); 0.356 in the experiment with AZD1208 + Decitabine (first compound 0.253 µM); 0.327 with AZD1208 + Decitabine (first compound 0.8 µM). In addition, the relative viability came out at 0.351 with AZD1208 + Decitabine (first compound 2.53 µM); 0.344 with AZD1208 + Decitabine (first compound 8 µM); 0.793 with AZD1208 + Olaparib (first compound 0.08 µM); 0.941 with AZD1208 + Olaparib (first compound 0.253 µM); 0.811 with AZD1208 + Olaparib (first compound 0.8 µM); 0.829 with AZD1208 + Olaparib (first compound 2.53 µM). In addition, the relative viability with AZD1208 + Olaparib (first compound 8 µM) turned out to be 0.821.
Turning to EMC-BAC-2, the relative viability with XMD14-99 + Lapatinib (first compound 0.08 µM) is 0.87; with XMD14-99 + Lapatinib (first compound 0.8 µM) it was 0.905; with XMD14-99 + Lapatinib (first compound 2.53 µM), 0.859; in the experiment with XMD14-99 + Lapatinib (first compound 8 µM), 0.724; with AZD1208 + Crizotinib (first compound 0.08 µM), 0.84; in the experiment with AZD1208 + Crizotinib (first compound 0.253 µM), 0.785. The relative viability is 0.74 with AZD1208 + Crizotinib (first compound 0.8 µM); 0.798 with AZD1208 + Crizotinib (first compound 2.53 µM); 0.674 in the experiment with AZD1208 + Crizotinib (first compound 8 µM); 0.932 with AZD1208 + Decitabine (first compound 0.08 µM); 0.94 in the experiment with AZD1208 + Decitabine (first compound 0.253 µM); 0.903 with AZD1208 + Decitabine (first compound 0.8 µM). Moreover, the relative viability in the experiment with AZD1208 + Decitabine (first compound 2.53 µM) was 0.992; in the experiment with AZD1208 + Decitabine (first compound 8 µM), 0.812; with AZD1208 + Olaparib (first compound 0.08 µM) it was 0.517; with AZD1208 + Olaparib (first compound 0.253 µM), 0.536; with AZD1208 + Olaparib (first compound 0.8 µM), 0.494; with AZD1208 + Olaparib (first compound 2.53 µM), 0.472. Further, in the experiment with AZD1208 + Olaparib (first compound 8 µM), the relative viability stood at 0.448.
As for EPLC-272H, the relative viability in the experiment with XMD14-99 + Lapatinib (first compound 0.08 µM) amounted to 0.927; with XMD14-99 + Lapatinib (first compound 0.8 µM) it was 0.943; with XMD14-99 + Lapatinib (first compound 2.53 µM) it was 0.924; with XMD14-99 + Lapatinib (first compound 8 µM), 0.846; with AZD1208 + Crizotinib (first compound 0.08 µM) it was 0.93; with AZD1208 + Crizotinib (first compound 0.253 µM), 1. In addition, the relative viability is 0.792 with AZD1208 + Crizotinib (first compound 0.8 µM); 0.849 with AZD1208 + Crizotinib (first compound 2.53 µM); 0.726 with AZD1208 + Crizotinib (first compound 8 µM); 0.412 with AZD1208 + Decitabine (first compound 0.08 µM); 0.342 in the experiment with AZD1208 + Decitabine (first compound 0.253 µM); 0.392 in the experiment with AZD1208 + Decitabine (first compound 0.8 µM). Further, the relative viability with AZD1208 + Decitabine (first compound 2.53 µM) was 0.364; with AZD1208 + Decitabine (first compound 8 µM), 0.368; with AZD1208 + Olaparib (first compound 0.08 µM), 0.647; with AZD1208 + Olaparib (first compound 0.253 µM), 0.773; with AZD1208 + Olaparib (first compound 0.8 µM), 0.906; with AZD1208 + Olaparib (first compound 2.53 µM) it was 0.687. Besides, in the experiment with AZD1208 + Olaparib (first compound 8 µM), the relative viability is 0.656.
